The source of these data is ChEMBL document CHEMBL1201862, “PubChem BioAssay data set” (2004).

The nature of test [1]: Luminescence Cell-Based Dose Response HTS to Identify Inhibitors of 5'UTR Stem-Loop Driven Prion Protein mRNA Translation in H4 Neuroglioblastoma Cells. [Related pubchem assays: 1827 (Project Summary), 1813 (Primary HTS)]. In kind it is functional.
A short description of test [2]: inhibitors of firefly luciferase expression or activity, dose response, H4 neuroglioma cells, luminescence (AID 1990). The test is classed as functional, cell-based.
Test [3] in a line: inhibitors of SNCA 5'UTR-driven reporter translation, confirmation, H4 neuroglioma cells, luminescence (AID 1988). The test is classed as functional, cell-based.
The nature of test [4]: growth suppression of PTEN-null colon cells, dose response, cell-based, HCT116 PTEN knockout (AID 1047).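 Note: HCT116 colon tumor cells with PTEN knocked out; cells exposed to compound for 60 hours before readout; potency for loss of cell viability measured by luminescence.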 The test is classed as functional.
The nature of test [5]: growth suppression of beta-catenin-knockout colon cells, dose response, cell-based, HCT116, human colon tumor (AID 1045).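 Note: HCT116 colon tumor cells with beta catenin knocked out; cells exposed to compound for 60 hours.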 The test is classed as functional.
The target in test [6] is T1, Corticotropin-releasing factor receptor 2/Corticotropin-releasing factor-binding protein (Homo sapiens, UniProt P24387+Q13324).
T1 sequence (Q13324 whole entry): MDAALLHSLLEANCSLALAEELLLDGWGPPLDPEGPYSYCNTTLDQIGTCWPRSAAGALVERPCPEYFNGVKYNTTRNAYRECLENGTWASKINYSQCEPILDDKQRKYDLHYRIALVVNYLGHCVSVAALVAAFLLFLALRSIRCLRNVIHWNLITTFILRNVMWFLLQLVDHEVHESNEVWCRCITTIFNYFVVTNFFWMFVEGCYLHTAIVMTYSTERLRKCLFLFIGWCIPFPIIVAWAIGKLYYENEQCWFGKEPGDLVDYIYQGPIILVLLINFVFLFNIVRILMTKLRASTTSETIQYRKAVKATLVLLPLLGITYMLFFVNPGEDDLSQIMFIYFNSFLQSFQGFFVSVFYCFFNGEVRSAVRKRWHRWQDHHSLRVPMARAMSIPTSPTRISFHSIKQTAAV
T1 sequence (P24387 whole entry): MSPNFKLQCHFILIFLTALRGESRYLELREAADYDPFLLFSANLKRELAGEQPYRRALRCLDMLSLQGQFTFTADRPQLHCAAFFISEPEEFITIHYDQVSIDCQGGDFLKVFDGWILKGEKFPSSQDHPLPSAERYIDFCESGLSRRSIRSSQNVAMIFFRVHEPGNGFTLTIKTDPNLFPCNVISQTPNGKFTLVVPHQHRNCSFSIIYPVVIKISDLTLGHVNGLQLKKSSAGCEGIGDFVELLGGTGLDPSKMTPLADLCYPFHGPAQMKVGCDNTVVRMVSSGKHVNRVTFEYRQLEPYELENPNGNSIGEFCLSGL
Description: activators of CRF receptor 2 with binding protein – uHTS hits, confirmation (AID 602473). The test is classed as functional. Particulars: read-out: EC50_Mean.

A further test has as its target T2, Protein RecA (Mycobacterium tuberculosis, UniProt P9WHJ3).
T2 sequence (P9WHJ3 whole entry): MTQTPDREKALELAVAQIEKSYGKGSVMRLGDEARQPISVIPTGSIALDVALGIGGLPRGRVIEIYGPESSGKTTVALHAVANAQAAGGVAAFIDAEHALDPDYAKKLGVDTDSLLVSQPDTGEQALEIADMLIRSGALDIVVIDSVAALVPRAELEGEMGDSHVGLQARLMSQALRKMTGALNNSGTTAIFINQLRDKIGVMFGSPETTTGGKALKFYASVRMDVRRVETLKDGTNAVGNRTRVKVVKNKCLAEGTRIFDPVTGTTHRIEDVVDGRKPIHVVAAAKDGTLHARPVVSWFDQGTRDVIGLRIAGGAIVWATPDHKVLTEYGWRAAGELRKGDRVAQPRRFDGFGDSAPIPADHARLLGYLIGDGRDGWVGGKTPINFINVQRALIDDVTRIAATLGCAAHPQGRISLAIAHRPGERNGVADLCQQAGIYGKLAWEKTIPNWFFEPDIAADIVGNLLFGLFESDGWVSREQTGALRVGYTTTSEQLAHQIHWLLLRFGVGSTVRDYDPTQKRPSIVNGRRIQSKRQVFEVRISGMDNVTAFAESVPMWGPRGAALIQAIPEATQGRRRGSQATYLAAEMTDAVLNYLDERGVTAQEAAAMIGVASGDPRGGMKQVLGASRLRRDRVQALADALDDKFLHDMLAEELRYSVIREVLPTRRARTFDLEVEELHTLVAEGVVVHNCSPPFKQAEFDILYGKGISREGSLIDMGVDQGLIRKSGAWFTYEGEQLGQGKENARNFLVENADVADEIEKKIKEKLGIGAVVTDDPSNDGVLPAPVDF
Description: Fluorescence Cell-Free Homogeneous Dose Retest to Identify Inhibitors of RecA-Intein Splicing Activity. [Related pubchem assays (depositor defined):AID2097, AID2223, AID489010, AID492950]. The test is classed as functional.

Test [7] has as its target T3, Replicative DNA helicase DnaB (Mycobacterium tuberculosis, UniProt P9WMR3).
T3 sequence (P9WMR3 whole entry): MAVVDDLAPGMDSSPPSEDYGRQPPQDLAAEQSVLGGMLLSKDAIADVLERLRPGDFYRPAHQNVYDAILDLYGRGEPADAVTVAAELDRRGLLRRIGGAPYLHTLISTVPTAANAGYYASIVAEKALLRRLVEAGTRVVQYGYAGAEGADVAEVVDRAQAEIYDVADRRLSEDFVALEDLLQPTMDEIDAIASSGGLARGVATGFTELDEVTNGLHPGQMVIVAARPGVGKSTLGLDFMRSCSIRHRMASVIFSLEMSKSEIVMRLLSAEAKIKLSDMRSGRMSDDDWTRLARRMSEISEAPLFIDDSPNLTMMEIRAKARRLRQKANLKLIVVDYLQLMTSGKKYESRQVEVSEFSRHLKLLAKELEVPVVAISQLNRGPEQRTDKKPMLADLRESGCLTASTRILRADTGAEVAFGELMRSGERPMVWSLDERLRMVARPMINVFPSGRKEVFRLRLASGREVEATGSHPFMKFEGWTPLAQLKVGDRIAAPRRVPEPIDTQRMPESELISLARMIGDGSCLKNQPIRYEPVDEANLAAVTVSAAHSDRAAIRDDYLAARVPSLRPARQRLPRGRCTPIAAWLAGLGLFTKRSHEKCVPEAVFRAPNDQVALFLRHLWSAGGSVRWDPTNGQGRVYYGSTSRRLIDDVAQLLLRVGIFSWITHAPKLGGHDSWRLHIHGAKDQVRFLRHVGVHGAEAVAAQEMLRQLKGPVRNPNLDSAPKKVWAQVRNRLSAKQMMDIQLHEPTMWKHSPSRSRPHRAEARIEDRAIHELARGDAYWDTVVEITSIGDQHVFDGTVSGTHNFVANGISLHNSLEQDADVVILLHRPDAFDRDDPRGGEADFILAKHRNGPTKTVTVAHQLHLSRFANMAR
The test can be described thus: DnaB intein splicing inhibitors, dose response, biochemical, cell-free fluorescence (AID 449749). In kind it is functional.

Test [8] can be described thus: inhibitors of intracellular T. cruzi replication, confirmation, NIH3T3 host cells, beta-gal luminescence (AID 2044).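 Note: intracellular parasites grown in NIH/3T3 mouse fibroblasts as host cells; luminescent beta-galactosidase reporter signal from transgenic T. cruzi replicating inside host cells; inhibitors lower the luminescence signal.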 In kind it is functional, cell-based.
Test [9] can be described thus: Luminescence Cell-Based Dose Retest to Confirm Inhibitors of Cancer Stem Cells. [Related pubchem assays (depositor defined):AID2717, AID2721]. In kind it is functional. Particulars: Homo sapiens.
A short description of test [10]: cytotoxicity toward NIH3T3 fibroblasts, dose response, counter-screen, cell-based, ATP luminescence, mouse fibroblasts (AID 2010).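 Note: cells exposed to compound for about 90 hours before reading.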 In kind it is functional.
The target in a further test is T4, Streptokinase A (Streptococcus pyogenes serotype M1, UniProt P10520).
T4 sequence (P10520 whole entry): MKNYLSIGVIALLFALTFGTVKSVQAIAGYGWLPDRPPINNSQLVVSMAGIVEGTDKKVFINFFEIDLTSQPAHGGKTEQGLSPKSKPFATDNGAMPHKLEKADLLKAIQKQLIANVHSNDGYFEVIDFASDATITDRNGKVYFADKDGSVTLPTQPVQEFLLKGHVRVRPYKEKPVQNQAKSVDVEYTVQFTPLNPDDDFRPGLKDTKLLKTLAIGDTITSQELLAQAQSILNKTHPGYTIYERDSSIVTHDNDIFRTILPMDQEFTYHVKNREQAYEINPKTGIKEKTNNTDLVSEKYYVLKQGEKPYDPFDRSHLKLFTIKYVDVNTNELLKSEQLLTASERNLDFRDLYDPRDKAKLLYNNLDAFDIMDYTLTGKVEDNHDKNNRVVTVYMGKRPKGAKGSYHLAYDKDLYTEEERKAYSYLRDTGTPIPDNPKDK
The test can be described thus: S. pyogenes streptokinase expression inhibitors, potency, dose response, plasminogen activation absorbance, OD405 (AID 1914).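 Note: secreted streptokinase activity via plasminogen activation per viability signal from cell pellet.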 In kind it is functional, Streptococcus pyogenes M1 GAS.

The subject of a further test is Streptococcus. Description: Group A Streptococcus viability loss, dose response, counter-screen for streptokinase expression inhibitor project, luminescence, BacTiterGlo (AID 1915).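 Note: potency for reduction of bacterial viability or growth.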 The test is classed as functional, organism-based.
In test [11] the test system is Streptococcus sp. 'group A'. The test can be described thus: growth inhibition of control SK(-) GAS strain, dose response, counter-screen for streptokinase expression inhibitor project, luminescence, kanamycin, BacTiterGlo, confirmation (AID 1900). In kind it is functional, organism-based. (The purpose of a counterscreen is to sort out artefacts and off-target activity.)

The source made the active and inactive calls. Cut-off read from the data, not from the text of the source, for most assays here: actives have a measured EC50 and inactives only a lower limit. Some results are limits rather than exact numbers.

Take `CC(C)Nc1nc(N=C(N)S)nc(NC(C)C)n1`: the EC50 in [1], in [2] and in [3] was > 120 µM (not active) throughout.

On to `Clc1ccc(CN(Cc2ccccc2)C(c2cccs2)c2nnnn2C2CCCC2)cc1` (stereo not drawn), for which the values for the EC50 in [4] and in test [5] were 53.2 µM (active) and 32.8 µM (active), respectively.

Turning to `Cc1ccc(C)c2sc(NC(=O)c3ccc(N4C(=O)CCC4=O)cc3)nc12`, the EC50 in test [6] was > 53 µM (inactive).

The AC50 is the concentration giving half of the maximal activity seen. As for `COc1cc(C2C(C#N)=C(N)Oc3[nH]nc(C)c32)ccc1OC(=O)c1ccccc1` (stereo not drawn), the EC50 on Protein RecA was 17.3 µM (active). Besides, the AC50 in test [7] is 20.3 µM (active).

Consider `Cn1c(C(=O)NCCCN2CCN(c3ccccc3F)CC2)cc2c(=O)n(C)c3ccccc3c21`, for which the EC50 in test [4] was 17.2 µM (active); in test [5], 17.7 µM (active).

Take `O=C(CSc1nnc(-c2ccc3c(c2)OCO3)o1)Nc1ncc(Cl)cc1Cl`: the EC50 in [4] was 11.4 µM (active); in test [5], 9.18 µM (active).

On to `CCOC(=O)/C(=C/C=C1\Sc2ccccc2N1CC)C(C)=O`, for which, in [6], the EC50 is 11.5 µM (active).

Consider `CC1CCc2c(c3ccccc3n2C(=O)CCl)C1` (stereo not drawn), for which the EC50 at Protein RecA is 0.751 µM (active). Also, the AC50 in test [7] is > 380 µM (inactive).

With `O=C(Nc1ccc(NC(=O)c2sc3ccccc3c2Cl)cc1)c1ccco1`, the EC50 in test [4] was 9.27 µM (active); in [5] it was 9.19 µM (active).

`CCOc1ccc(NC(=O)c2cn(CC(C)C)c(=O)c3c2c2ccccc2n3C)cc1`: the EC50 in test [4] is 10 µM (active); in test [5] it was 13.4 µM (active).

For `CC1CN(CCCCOc2cccc(Oc3ccccc3)c2)CC(C)O1` (stereo not drawn), the values for the EC50 in [8] and in test [10] were 1.01 µM (active) and > 60 µM (inconclusive), respectively. Also, the AC50 in [9] is 13.3 µM (active).

Consider `COc1ccc(F)cc1CN1CCN(c2ncnc3scc(-c4ccccc4)c23)CC1`, for which the EC50 in test [1] is 23.9 µM (active); in test [2], 15.8 µM (active); in test [3], 15.6 µM (active).

In the case of `CCCn1c(=O)c(C(=O)NNC(=O)c2ccc(Cl)cc2Cl)c(O)c2ccccc21`, the EC50 in [6] was 4.01 µM (active).

Take `CCc1cc2c(SCC(=O)Nc3ccc(Cl)cn3)ncnc2s1`: the EC50 in test [4] was 31.9 µM (active); in [5], 71.3 µM (active).

With `O=S(=O)(Nc1ccc(-n2cnnn2)cc1)c1ccc(F)c(F)c1F`, the EC50 at Protein RecA was > 380 µM (inactive). The AC50 in test [7] was > 380 µM (inactive).

On to `CC(C)(C)c1ccc(/C=C/C(=O)c2ccc(NC3=NCCCS3)cc2)cc1`, for which the EC50 in test [8] was 2.08 µM (active); in test [4], 6.9 µM (active); in test [10] it was > 60 µM (not active); in test [5] it was 4.92 µM (active). Also, the AC50 in test [9] is 2.63 µM (active).

`Cc1cccc(C(=O)NC2C(=O)NNC2c2ccc(Cl)cc2)c1` (stereo not drawn): on Protein RecA, the EC50 is 18.9 µM (active). The AC50 in [7] was 18.7 µM (active).

Take `CC1(C)CC(=O)C(C2C3=C(CC(C)(C)CC3=O)Oc3c(Br)cc(Br)cc32)=C(O)C1` (stereo not drawn): the EC50 on Streptokinase A is 24.8 µM (active); in the test with Streptococcus, 12.2 µM (active); in test [11], 4.66 µM (active); in [6], 10.3 µM (active).

For `CC(C)(C)OC(=O)N1CC=C2C(C#N)=C(N)C(C#N)(C#N)C(c3cccs3)C2C1` (stereo not drawn), the EC50 at Protein RecA is 5.1 µM (active). The AC50 in test [7] was > 380 µM (inactive).

Take `Cc1ccc2oc(=O)c(/C=C(\O)c3sc(C)nc3C)nc2c1`: the EC50 in [6] was 7.67 µM (active).

As to `Cc1ccc(S(=O)(=O)N2CCOC23CCN(C(=O)c2ccc(Cl)cc2Cl)CC3)cc1`, the EC50 was 17.7 µM (active) in test [1], > 120 µM (not active) in test [2] and 13.8 µM (active) in test [3].

As for `COC(=O)c1sccc1NC(=O)c1cc(-c2cccc(C)c2)nc2ccccc12`, the EC50 is 6.74 µM (active) in test [4] and 8.24 µM (active) in [5].

Take `CCOc1cc(NC(=O)c2ccccc2C)c(OCC)cc1NC(=O)C1=Cc2ccccc2OC1`: the EC50 is 18.7 µM (active) in [1], > 120 µM (not active) in [2] and 9.61 µM (active) in test [3].

As for `Cc1ccc2[nH]c(SCC3CCCCO3)nc2c1` (stereo not drawn), in test [1], the EC50 is > 60 µM (inconclusive).
